Test results reported in ChEMBL document CHEMBL1201862, “PubChem BioAssay data set” (2004).
Calls of active or inactive are those of the source. Unless noted, the rule behind the calls is not given here.

Tests used:
Vero = test: Vero E6 cell cytotoxicity, dose response, cytotoxicity control (AID 540298); type: functional; conditions: Chlorocebus sabaeus
MDCK [1] = test: MDCK cell cytotoxicity, dose response, cytotoxicity control (AID 540296); type: functional; conditions: Canis lupus familiaris
MDCK [2] = test: antiviral activity against H1N1 influenza, dose response, cell-based, strain KY136 (AID 540257); type: functional; conditions: Canis lupus familiaris
Keap1/Nrf2 = Keap1/Nrf2 (Homo sapiens, UniProt Q14145); test: disruptors of Keap1 binding to Nrf2 peptide – biochemical, fluorescence polarization, cherry-picked samples, dose response (AID 588683)
Sequence of Keap1/Nrf2 (Q16236 whole entry): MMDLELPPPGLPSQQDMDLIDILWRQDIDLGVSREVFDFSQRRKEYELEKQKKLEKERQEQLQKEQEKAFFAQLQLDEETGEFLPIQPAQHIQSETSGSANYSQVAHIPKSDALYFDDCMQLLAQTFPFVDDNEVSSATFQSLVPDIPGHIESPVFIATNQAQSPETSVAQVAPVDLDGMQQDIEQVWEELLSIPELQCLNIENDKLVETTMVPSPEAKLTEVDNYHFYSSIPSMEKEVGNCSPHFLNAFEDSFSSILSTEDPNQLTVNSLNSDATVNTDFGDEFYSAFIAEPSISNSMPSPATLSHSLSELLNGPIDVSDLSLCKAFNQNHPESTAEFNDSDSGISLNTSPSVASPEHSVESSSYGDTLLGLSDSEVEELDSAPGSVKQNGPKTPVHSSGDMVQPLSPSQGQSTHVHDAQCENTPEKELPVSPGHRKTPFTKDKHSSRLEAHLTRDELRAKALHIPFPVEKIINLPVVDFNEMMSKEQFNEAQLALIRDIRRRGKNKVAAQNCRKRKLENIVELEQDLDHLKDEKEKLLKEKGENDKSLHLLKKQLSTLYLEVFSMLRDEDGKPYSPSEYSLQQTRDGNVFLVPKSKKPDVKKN
Sequence of Keap1/Nrf2 (Q14145 whole entry): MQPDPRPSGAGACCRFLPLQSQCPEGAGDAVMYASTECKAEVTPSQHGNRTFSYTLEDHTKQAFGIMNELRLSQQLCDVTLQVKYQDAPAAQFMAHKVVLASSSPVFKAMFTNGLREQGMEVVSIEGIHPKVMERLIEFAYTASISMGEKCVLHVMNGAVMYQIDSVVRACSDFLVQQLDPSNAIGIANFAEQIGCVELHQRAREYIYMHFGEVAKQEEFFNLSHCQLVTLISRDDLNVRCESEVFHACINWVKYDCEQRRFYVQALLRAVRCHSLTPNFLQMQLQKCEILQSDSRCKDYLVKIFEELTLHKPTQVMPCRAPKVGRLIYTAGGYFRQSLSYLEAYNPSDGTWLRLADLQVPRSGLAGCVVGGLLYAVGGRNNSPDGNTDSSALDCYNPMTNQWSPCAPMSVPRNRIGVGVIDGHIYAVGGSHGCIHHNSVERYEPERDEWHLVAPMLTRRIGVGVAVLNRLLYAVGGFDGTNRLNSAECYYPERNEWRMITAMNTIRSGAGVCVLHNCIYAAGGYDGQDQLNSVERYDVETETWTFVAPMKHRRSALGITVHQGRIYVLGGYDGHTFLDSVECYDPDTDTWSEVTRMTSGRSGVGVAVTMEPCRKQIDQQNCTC

NS3 = NS3 (Hepatitis C virus, UniProt A3EZJ3); test: PubChem AID 2173; design: species or system Hepacivirus hominis
Sequence of NS3 (A3EZJ3 whole entry): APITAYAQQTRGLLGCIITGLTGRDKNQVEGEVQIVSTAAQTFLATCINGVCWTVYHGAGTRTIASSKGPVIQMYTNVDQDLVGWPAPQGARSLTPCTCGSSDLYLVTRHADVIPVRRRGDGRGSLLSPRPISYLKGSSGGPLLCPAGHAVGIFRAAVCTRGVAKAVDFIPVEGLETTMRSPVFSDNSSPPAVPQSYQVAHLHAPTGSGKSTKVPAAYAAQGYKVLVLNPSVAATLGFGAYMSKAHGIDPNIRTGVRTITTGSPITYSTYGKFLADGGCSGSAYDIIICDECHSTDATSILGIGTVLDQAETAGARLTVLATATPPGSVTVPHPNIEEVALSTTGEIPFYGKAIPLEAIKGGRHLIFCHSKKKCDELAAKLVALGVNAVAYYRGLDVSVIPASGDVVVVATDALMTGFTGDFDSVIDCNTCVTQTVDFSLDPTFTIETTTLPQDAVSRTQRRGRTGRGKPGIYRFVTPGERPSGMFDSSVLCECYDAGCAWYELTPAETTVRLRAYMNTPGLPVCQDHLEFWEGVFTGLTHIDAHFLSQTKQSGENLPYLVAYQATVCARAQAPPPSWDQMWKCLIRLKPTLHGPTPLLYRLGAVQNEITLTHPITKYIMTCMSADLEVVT

[3] = Late-stage probe development counterscreen for inhibitors of the Hepatitis C Virus non-structural protein 3 helicase (NS3): luminescence-based cell-based dose response assay to determine whether compounds that inhibit replication of HCV RNA replicon are cytotoxic. [Related pubchem assays (depositor defined):AID1800, AID1830, AID1845, AID1943, AID1945, AID2172, AID2173, AID2474, AID2476]; type: functional
[4] = target: Heat shock protein HSP 90-alpha (Homo sapiens, UniProt P07900); test: Luminescence-based dose response biochemical high throughput screening assay for inhibitors of the Heat Shock Protein 90 (HSP90). [Related pubchem assays: 1831 (Summary AID.), 1846 (Confirmation screen.), 1789 (Primary screen.)]
[5] = target: Luciferin 4-monooxygenase (Photuris pensylvanica, UniProt Q27757); test: inhibition of Cell Titer Glo luciferase signal – biochemical, luminescence, cherry-picks, counter-screen for HSF-1 reporter inhibitor project, dose response (AID 588847)
Sequence of Luciferin 4-monooxygenase (Q27757 whole entry): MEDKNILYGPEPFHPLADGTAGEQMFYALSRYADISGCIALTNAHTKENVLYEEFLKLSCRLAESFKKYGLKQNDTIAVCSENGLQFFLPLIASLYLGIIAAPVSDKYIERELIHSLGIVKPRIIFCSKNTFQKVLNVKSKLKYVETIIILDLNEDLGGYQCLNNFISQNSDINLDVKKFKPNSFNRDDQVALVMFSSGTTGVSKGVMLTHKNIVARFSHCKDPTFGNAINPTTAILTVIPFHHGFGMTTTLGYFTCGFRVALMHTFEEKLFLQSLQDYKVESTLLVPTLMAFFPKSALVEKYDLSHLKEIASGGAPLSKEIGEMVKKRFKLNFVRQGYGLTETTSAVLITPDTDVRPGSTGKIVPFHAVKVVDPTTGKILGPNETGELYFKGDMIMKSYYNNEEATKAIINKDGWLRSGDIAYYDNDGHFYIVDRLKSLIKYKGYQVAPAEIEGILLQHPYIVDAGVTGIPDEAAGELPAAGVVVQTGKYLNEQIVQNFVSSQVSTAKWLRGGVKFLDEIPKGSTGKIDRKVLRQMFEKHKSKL

[6] = target: Beta-adrenergic receptor kinase 1 (Homo sapiens, UniProt P25098); test: blockers of aptamer binding to GRK2 – biochemical, flow cytometry beads, FAM-aptamer, powder set 1, dose response (AID 588720)
Sequence of Beta-adrenergic receptor kinase 1 (P25098 whole entry): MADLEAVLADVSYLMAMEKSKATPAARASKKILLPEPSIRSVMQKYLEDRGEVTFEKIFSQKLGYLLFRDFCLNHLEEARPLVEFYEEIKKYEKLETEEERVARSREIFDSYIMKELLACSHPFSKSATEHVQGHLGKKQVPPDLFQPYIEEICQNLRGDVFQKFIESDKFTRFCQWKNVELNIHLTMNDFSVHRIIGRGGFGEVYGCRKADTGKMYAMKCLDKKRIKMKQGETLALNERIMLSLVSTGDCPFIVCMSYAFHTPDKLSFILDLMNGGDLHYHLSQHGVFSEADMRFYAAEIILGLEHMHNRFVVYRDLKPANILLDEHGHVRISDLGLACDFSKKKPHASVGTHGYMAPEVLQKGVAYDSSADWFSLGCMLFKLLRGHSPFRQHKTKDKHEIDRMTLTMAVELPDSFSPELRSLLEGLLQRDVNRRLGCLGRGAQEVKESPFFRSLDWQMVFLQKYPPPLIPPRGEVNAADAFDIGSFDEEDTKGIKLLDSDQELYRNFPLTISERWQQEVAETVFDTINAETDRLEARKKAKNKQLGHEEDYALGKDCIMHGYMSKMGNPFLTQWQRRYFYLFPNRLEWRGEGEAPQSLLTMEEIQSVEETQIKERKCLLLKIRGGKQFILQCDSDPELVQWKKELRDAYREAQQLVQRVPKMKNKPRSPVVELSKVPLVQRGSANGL

Candida albicans [7] = test: fluconazole-resistant Candida strain growth inhibitors – CaCi-8 strain, dry powder, set 4, dose response (AID 488950); type: functional, organism-based
Candida albicans [8] = test: antifungal activity against resistant Candida strain – CaCi-8, fluconazole, Alamar Blue, dry powder, dose response (AID 488807); type: functional, organism-based
NIH3T3 = test: mammalian cell viability counter-check – Alamar Blue, fluconazole, dry powder, cytotoxicity control for antifungal drug resistance project, dose response (AID 488809); type: functional, cell-based; conditions: Mus musculus

In the case of `CC1CCN(c2nc(NCc3ccco3)nc(N)c2[N+](=O)[O-])CC1`, the CC50 (Vero) was > 40 µM (active), the CC50 (MDCK [1]) was 11.4 µM (active) and the IC50 (MDCK [2]) was 2.57 µM (active).

In the case of `COc1cc(OC)c(S(=O)(=O)Nc2ccccc2C(=O)O)cc1S(=O)(=O)Nc1ccccc1C(=O)O`, the AC50 (Keap1/Nrf2) was > 52 µM (inactive).

In the case of `Cc1ccc(C(=O)C2=C(O)C(=O)N(Cc3ccco3)C2c2cccc(Cl)c2)o1` (configuration not stated), the IC50 (NS3) was 5.36 µM (active) and the CC50 [3] was > 100 µM (inactive).

In the case of `CC(C)Sc1nc(SCC(=O)NCc2ccco2)c2c3c(sc2n1)COC(C)(C)C3`, the IC50 [4] was 8.37 µM (active) and the AC50 [5] was > 52 µM (inactive).

With `Cc1ccccc1NC(=O)CCS(=O)(=O)c1ccc(Br)cc1` the EC50 [6] was 11.4 µM (active).

In the case of `O=C(C1CC1)N1CCN(c2ccnc3cc(Cl)ccc23)CC1`, the AC50 (Candida albicans [7]) was 12.4 µM (active), the AC50 (Candida albicans [8]) was 3.25 µM (active) and the AC50 (NIH3T3) was 1.7 µM (active).
